Values of other authors, collected in patent US11154585B2, “Orodispersible film composition comprising enalapril for the treatment of hypertension in a pediatric population” (PHARMATHEN S.A., priority 2017, dated 2021).
Counter-ions that a name gives are not always drawn. Like-named read-outs stand apart in the source and are kept apart here.

CCOC(=O)[C@H](CCc1ccccc1)N[C@@H](C)C(=O)N1CCC[C@H]1C(=O)O [Enalapril maleate]
Solubility (alcohol): soluble
Solubility (methanol and dimethylformamide): freely soluble
Solubility (nonpolar organic solvents): practically insoluble
Solubility (semi polar organic solvents): slightly soluble
Solubility (water): sparingly soluble
